{
  "source": "patent US8597645B2",
  "about": "“Cancer treatment with endothelin receptor antagonists” (New York University, priority 1999, dated 2013)",
  "key": {"[1]": {"system": "E-cadherin protein levels in melanocytes (FM2030) and melanoma cells (SKMEL28)", "test": "Down-regulation of E-cadherin by ET-1, immunoblot analysis of lysates", "type": "cell-based, human", "conditions": "for blocking of E-cadherin down-regulation by ET-1: antagonist 100 nM added one hour before 10 nM ET-1, 40 hours", "protocol": "A375, WM-266-4 and WM-1 15 melanoma cells were purchased from the ATCC. Culture conditions were as described in I. M. Shih, et al., Am. J. Pathol., 145:837-45 (1994). Two weeks prior to ET-stimulation, water soluble 12,13-phorbol dibutyrate was substituted for phorbol 12-myristate, 13-acetate in melanocyte medium. ET stimulations of melanocytes were carried out in phorbol-free medium. Cell pellets were incubated for 15 minutes in 6 pellet volumes of RIPA buffer (1% NP4O, 0.5% deoxycholic acid, 10 mM Tris pH 8.3, 150 mM NaCl, 50 mM NaF, 0.2 mM sodium vanadate, 1× protease inhibitors-Boehringer complete). After centrifugation, lysates were quantitated using protein assay reagent (Biorad). 2.5 ug of protein per sample were subjected to SDS-PAGE unless samples were prepared from A375, WM-266-4 or WM-1 15 cells in which case 100 ug protein per sample was used. BQ123 and BQ788 at 100 nM were added to cells one hour before ET-1 addition. Antibodies: anti-E-cadherin (Transduction labs), anti-mouse IgG-HRP (Santa-Cruz). ECL detection system (Amersham). ET-1, ET-3, BQ123, BQ788 (Peninsula labs).\nHuman neonatal melanocytes (FM2030) and human melanoma cells (SKMEL28) were stimulated with 10 nM ET-1 over a 40 hour time course and protein lysates were examined for E-cadherin protein levels by immunoblot analysis (FIG. 1A). […] E-cadherin protein levels returned to baseline by 72 hours. A delayed and prolonged response to ET-1 has also been reported in other cell types. R. Marsault, et al., Biochem. Biophys. Res. Commun., 179:1408-3 (1991). […] In addition to E-cadherin, expression of the adhesion molecules ICAM 1, CD44 and N-cadherin is altered during melanoma development. M. Y. Hsu, et al., J. Investig. Dermatol. Symp. Proc., 1:188-94 (1996); S. Vermeulen, et al., Pathol. Res. Pract, 192:694-707 (1996).\nThere are two well characterized ET-1 receptors, an A subtype (ETA) and a B subtype (ETB). A. G. Baynash, et al., Cell, 79:1277 85 (1994). Both subtypes are expressed by melanocytes while most melanoma cells express only ETB. ET-1 binds with equal affinity to both receptor subtypes. G. Imokawa, et al., Biochem. J., 314:305-12 (1996). To determine which subtype mediated the observed response, the assay was repeated in the presence of a selective ETA antagonist (BQ123) and a selective ETB antagonist (BQ788)."}, "[2]": {"system": "caspases (E-cadherin, β-catenin, p120CTN read-out) in SKMEL28 and FM2030 cells", "test": "Cell permeable caspase inhibitors on down-regulation of E-cadherin and catenins by ET-1", "type": "cell-based, human", "conditions": "inhibitors added 34 hours post ET-1, harvested at 40 hours", "protocol": "(§1) All caspase inhibitors contained a 16 amino-acid signal peptide derived from Kaposi Fibroblast Growth Factor to confer cell permeability (Calbiochem). Inhibitors were added to cells 34 hours post ET-1 stimulation and cells harvested at 40 hours. Crude cytoplasmic fractions were prepared as described for FIG. 2, except that supernatants containing cytoplasmic proteins were transferred to new tubes, supplemented with 0.11 volumes of buffer B (0.3M HEPES pH 7.9, 1.4M KCl, 0.03M MgCl2) and clarified by centrifugation. 10 ug of protein per sample was analyzed for caspase activation. Antibodies: Anti-caspase-8 antibody (UBI), Anti-caspase-3 and 7 (Transduction labs). Super Signal West Femto Maximum Sensitivity Substrate (PIERCE) was used for chemiluminescent detection of caspase proteins. Membranes were initially developed in a 1:5 dilution of the reagent made in H2O. If necessary, blots were briefly rinsed in TBS (10 mM Tris pH 8.0, 150 mM NaCl) and redeveloped with undiluted reagent for visualization of small fragments.\nTo determine whether caspase activation played a role in down-regulation of E-cadherin by ET-1, the assay was repeated in the presence of cell permeable inhibitors of a variety of different caspases (FIG. 3A). […]"}, "ETB receptors": {"system": "ETB receptors", "conditions": "cited from earlier work; for inhibition of 125I-labeled ET-1 binding: non cardiovascular tissues: kidney, adrenal gland, cerebellum"}, "[3]": {"system": "β-catenin and p120CTN protein levels in melanocytes and melanoma cells", "test": "Down-regulation of β-catenin and p120CTN by ET-1, immunoblot of crude membrane fractions", "type": "cell-based, human", "protocol": "To analyze membrane-associated catenin proteins, crude membrane fractions were prepared as follows: cell pellets were resuspended in 6 pellet volumes of buffer A (10 mM HEPES pH 7.5, 1.5 mM MgCl2, 10 mM KCl, 10 mM NaF, 0.2 mM sodium vanadate, 1× protease inhibitors-Boehringer complete) and allowed to swell for 10 min. Cell membranes were disrupted by vortexing for 10 s and membranes pelleted by centrifugation for 10 s. Supernatants containing cytoplasmic proteins were discarded. Membrane pellets were solubilized in RIPA buffer as described above and snap frozen on dry ice. 0.5 ug and 2.5 ug of protein lystes were used to examine levels of β-catenin and p120^CTN proteins respectively. Antibodies: anti-β-catenin and anti-p120^CTN (Transduction labs).\nThe catenins are cytoplasmic proteins that bind E-cadherin and are critical for E-cadherin function in cellular adhesion. J. M. Daniel, et al., Bloessays, 19: 883-91 (1997). Considering the importance of the catenins in E-cadherin function, the effect of ET-1 stimulation upon the levels of these proteins was studied. In both melanocytes and melanoma cells, ET-1 stimulation decreased β-catenin protein levels and increased its electrophoretic mobility (FIG. 2A). The kinetics of this response correlated well with those of E-cadherin down-regulation. BQ788, a selective ETB antagonist, blocked ET-1 mediated down-regulation of β-catenin (FIG. 2B)."}, "[4]": {"system": "caspase-8, caspases-3 and 7 in FM2030 and SKMEL28 cells", "test": "Caspase activation by ET-1, immunoblot of crude cytoplasmic extracts", "type": "cell-based, human", "protocol": "as §1\nTo determine whether caspase activation played a role in down-regulation of E-cadherin by ET-1, the assay was repeated in the presence of cell permeable inhibitors of a variety of different caspases (FIG. 3A). Strikingly, inhibitors containing the sequences IETD (inhibition of caspase-8) (SEQ ID NO:1) and DEVD (inhibition of caspases-3, 7, 8) (SEQ ID NO:2) were able to block down-regulation of E-cadherin by ET-1. The ‘DEVD’ (SEQ ID NO:2) inhibitor required a 10 fold higher concentration than the ‘IETD’ (SEQ ID NO:1) inhibitor in order to be effective (FIG. 3A. lower panel). Inhibitors specific for caspases 1, 4, 5, 6, 9 and 10 were without effect. […] Timepoints of maximal E-cadherin down-regulation coincided with the appearance of catalytically active caspase-8 subfragments (FIG. 3C, lower panel). Treatment of cells with a cell permeable inhibitor of caspase-8 prevented its proteolytic processing providing further evidence that caspase-8 activation is required for down-regulation of E-cadherin, β-catenin and p120^CTN by ET-1."}, "[5]": {"system": "melanocytes and melanoma cells", "test": "Immunofluorescence: subcellular localization of E-cadherin and β-catenin after ET-1", "type": "cell-based, human", "conditions": "10 nM ET-1, 96 hours", "protocol": "Cells were seeded onto collagen coated glass chamber slides in medium supplemented with 10 nM ET-1. At 48 hours, medium was aspirated and replaced with fresh ET-1 supplemented medium. At 96 hours, cells were fixed for 10 minutes in 3.7% formaldehyde/1 mM CaCl2/PBS, permeabilized for 10 minutes in 0.2% Triton X-100/PBS and blocked in 1% BSA/PBS for 10 minutes. Staining with E-cadherin and β-catenin antibodies diluted 1:50 in blocking buffer was performed for 45 minutes followed by a 30 minute incubation with goat-anti-mouse IgG-Cy3 (Jackson Immunoresearch labs) diluted 1:200 in blocking buffer. Cells were washed with PBS in between permeabilization and fixation steps and after antibody incubations."}, "isolated vascular strips": {"system": "isolated vascular strips", "conditions": "read-out: EC50 as contractile agent; cited from earlier work"}, "ETA receptors": {"system": "ETA receptors", "conditions": "cited from earlier work; for IC50: read-out: IC50, inhibition of 125I-labeled ET-1 binding"}, "[6]": {"conditions": "ET-1 stimulation, melanocytes and melanoma cells"}},
  "note": "Like-named read-outs stand apart in the source and are kept apart here. Where a SMILES comes first, the peptide text is derived from it.",
  "data": [
    {"molecule": "CC(C)C[C@@H]1NC(=O)[C@@H](C(C)C)NC(=O)[C@@H]2CCCN2C(=O)[C@@H](CC(=O)O)NC(=O)[C@@H](Cc2c[nH]c3ccccc23)NC1=O", "note": "[BQ123, cyclo(D-Asp-Pro-D-Val-Leu-D-Trp)] (HELM PEPTIDE1{L.[dW].[dD].P.[dV]}$PEPTIDE1,PEPTIDE1,1:R1-5:R2$$$V2.0)", "values": [
      {"measurement": "blocking of E-cadherin down-regulation by ET-1", "setting": "[1]", "result": "not"}
    ]},
    {"molecule": "IETD", "values": [
      {"measurement": "blocking of down-regulation of E-cadherin by ET-1", "setting": "[2]", "result": "able to block"}
    ]},
    {"molecule": "ET-3: ET isopeptide, a selective ETB agonist", "values": [
      {"measurement": "down-regulation of E-cadherin by ET-3", "setting": "[1]; 10 nM ET-3, 40 hours", "result": "potent down-regulator"},
      {"measurement": "inhibition of 125I-labeled ET-1 binding", "setting": "ETB receptors", "result": "inhibited to the same extent"}
    ]},
    {"molecule": "CCCC[C@@H](NC(=O)[C@@H](Cc1cn(C(=O)OC)c2ccccc12)NC(=O)[C@H](CC(C)(C)C)NC(=O)N1[C@H](C)CCC[C@@H]1C)C(=O)O", "note": "[BQ788]", "values": [
      {"measurement": "blocking of E-cadherin down-regulation by ET-1", "setting": "[1]", "result": "blocked"},
      {"measurement": "blocking of ET-1 mediated down-regulation of β-catenin", "setting": "[3]; ETB antagonist with ET-1", "result": "blocked"}
    ]},
    {"molecule": "ET-1: 21 amino-acid peptide secreted by keratinocytes; binds ETA and ETB", "values": [
      {"measurement": "E-cadherin protein level after ET-1 stimulation", "setting": "[1]; 10 nM ET-1, by 40 hours, FM2030 and SKMEL28", "result": "marked decrease"},
      {"measurement": "time at which E-cadherin protein levels returned to baseline", "setting": "[1]; 10 nM ET-1, FM2030 and SKMEL28", "result": "≤ 72", "unit": "h"},
      {"measurement": "dose response of E-cadherin down-regulation", "setting": "[1]; 0.5, 1.0, 10 nM ET-1, 40 hours, melanocytes and melanoma cells", "result": "dose responsive"},
      {"measurement": "protein levels of adhesion molecules ICAM 1, CD44 and N-cadherin", "setting": "[1]; immunoblot of lysates after ET-1", "result": "no effect"},
      {"measurement": "E-cadherin mRNA levels", "setting": "[1]; northern blot analysis", "result": "no ET-1 dependent decrease"},
      {"measurement": "down-regulation of E-cadherin in additional cell lines", "setting": "[1]; one additional melanocyte line (CL-NHEM) and 4 additional melanoma lines", "result": "down-regulation of E-cadherin was observed in all lines except in A375 and WM 115"},
      {"measurement": "p120CTN protein level and electrophoretic mobility", "setting": "[3]; ET-1 stimulation", "result": "down-regulated and increased the electrophoretic mobility"},
      {"measurement": "β-catenin electrophoretic mobility", "setting": "[3]; [6]", "result": "increased"},
      {"measurement": "β-catenin protein levels", "setting": "[3]; [6]", "result": "decreased"},
      {"measurement": "β-catenin mRNA levels", "setting": "[3]; northern blot analysis", "result": "failed to reveal an ET-1 dependent decrease"},
      {"measurement": "activation of distal caspases (caspases-3 and 7)", "setting": "[4]; SKMEL28 and FM2030 cells", "result": "failure of ET-1 to activate distal caspases"},
      {"measurement": "duration of ET-1 dependent proteolytic processing of caspase-8", "setting": "[4]; after ET-1 stimulation", "result": 46, "unit": "h"},
      {"measurement": "time at which ET-1 dependent proteolytic processing of caspase-8 was first detectable", "setting": "[4]; after ET-1 stimulation", "result": "approximately 36 hours"},
      {"measurement": "induction of apoptosis", "setting": "[4]; melanocytes and melanoma cells", "result": "failure to induce apoptosis"},
      {"measurement": "E-cadherin staining in melanocytes", "setting": "[5]", "result": "loss of concentration of E-cadherin staining at points of cell:cell contact"},
      {"measurement": "E-cadherin staining in melanoma cells", "setting": "[5]", "result": "markedly decreased intensity of membranous staining"},
      {"measurement": "β-catenin staining in melanocytes", "setting": "[5]", "result": "loss of concentration of β-catenin at lateral cell borders and at points of cell: cell contact"},
      {"measurement": "β-catenin staining in melanoma cells", "setting": "[5]", "result": "loss of most of the membranous staining"},
      {"measurement": "melanocyte morphology", "setting": "[5]; bright field micrographs", "result": "large nuclei with prominent nucleoli, abundant cytoplasm, polygonal morphology"},
      {"measurement": "EC50", "setting": "isolated vascular strips", "result": 0.0004, "unit": "µM"},
      {"measurement": "potency of inhibition of 125I-labeled ET-1 binding relative to ET-3", "setting": "ETA receptors; cardiovascular tissues", "result": "forty to seven hundred times more potently"},
      {"measurement": "inhibition of 125I-labeled ET-1 binding", "setting": "ETB receptors", "result": "inhibited to the same extent"}
    ]},
    {"molecule": "cyclo(D-Glu-L-Ala-allo-D-Ile-L-Leu-D-Trp) [BE-18257B]", "values": [
      {"measurement": "IC50", "setting": "ETA receptors; aortic smooth muscle", "result": 1.4, "unit": "µM"},
      {"measurement": "IC50", "setting": "ETA receptors; cultured aortic smooth muscle cells", "result": 0.5, "unit": "µM"},
      {"measurement": "IC50", "setting": "ETA receptors; ventricle membranes", "result": 0.8, "unit": "µM"},
      {"measurement": "IC50", "setting": "ETB receptors; tissues in which ETB receptors predominate, read-out: concentration up to which binding is not inhibited", "result": "> 100", "unit": "µM"}
    ]}
  ]
}
